Results taken from US8518947B2, “(Heterocycle/tetrahydropyridine)-(piperazinyl)-1-alcanone and (heterocycle/dihydropyrrolidine)-(piperazinyl)-1-alcanone derivatives, and use thereof as p75 inhibitors” (Sanofi, priority 2009, dated 2013).

Row | Structure (SMILES) | melting point [°C]
1 | Cc1cc2cc(C3=CCN(C(=O)CN4[C@H](C)CN(c5ccc(C(F)(F)F)nc5)C[C@@H]4C)CC3)ccc2s1 [Compound 39, 2-[(2S,6R)-2,6-dimethyl-4-(6-trifluoromethylpyridin-3-yl)piperazin-1-yl]-1-[4-(2-methylbenzo[b]thiophen-5-yl)-3,6-dihydro-2H-pyridin-1-yl]ethanone] | 217 to 218
2 | Cc1cc2cc(C3=CCN(C(=O)CN4[C@H](C)CN(c5cncnc5)C[C@@H]4C)CC3)ccc2s1 [Compound 40, 2-((2S,6R)-2,6-dimethyl-4-pyrimidin-5-ylpiperazin-1-yl)-1-[4-(2-methylbenzo[b]thiophen-5-yl)-3,6-dihydro-2H-pyridin-1-yl]ethanone] | 191 to 192
3 | C[C@@H]1CN(c2cncnc2)C[C@H](C)N1CC(=O)N1CC=C(c2ccc3sccc3c2)CC1 [Compound 41, 1-(4-benzo[b]thiophen-5-yl-3,6-dihydro-2H-pyridin-1-yl)-2-((2S,6R)-2,6-dimethyl-4-pyrimidin-5-ylpiperazin-1-yl)ethanone] | 218 to 220
4 | O=C(CN1CCN(c2ccc(C(F)(F)F)cn2)C(=O)C1)N1CC=C(c2ccc3sccc3c2)CC1 [Compound 43, 4-[2-(4-benzo[b]thiophen-5-yl-3,6-dihydro-2H-pyridin-1-yl)-2-oxoethyl]-1-(5-trifluoromethylpyridin-2-yl)piperazin-2-one] | 169 to 170
5 | C[C@@H]1CN(c2ccc(C(F)(F)F)nc2)C[C@H](C)N1CC(=O)N1CC=C(c2ccc3c(c2)OCCO3)CC1 [Compound 45, 1-[4-(2,3-dihydrobenzo[1,4]dioxin-6-yl)-3,6-dihydro-2H-pyridin-1-yl]-2-[(2S,6R)-2,6-dimethyl-4-(6-trifluoromethylpyridin-3-yl)piperazin-1-yl]ethanone] | 200 to 201
6 | O=C(CN1CCN(c2ccc(C(F)(F)F)cn2)CC1)N1CC=C(c2ccc3sccc3c2)CC1 [Compound 46, 1-(4-benzo[b]thiophen-5-yl-3,6-dihydro-2H-pyridin-1-yl)-2-[4-(5-trifluoromethylpyridin-2-yl)piperazin-1-yl)ethanone] | 170 to 171
7 | C[C@@H]1CN(c2ccc(C(F)(F)F)nc2)C[C@H](C)N1CC(=O)N1CC=C(c2ccc3sccc3c2)CC1 [Compound 47, 1-(4-benzo[b]thiophen-5-yl-3,6-dihydro-2H-pyridin-1-yl)-2-[(2S,6R)-2,6-dimethyl-4-(6-trifluoromethylpyridin-3-yl)piperazin-1-yl)ethanone] | 136 to 137
8 | O=C(CN1CCN(c2ccc(C(F)(F)F)cn2)C(=O)C1)N1CC=C(c2ccc3c(c2)OCCO3)CC1 [Compound 49, 4-{2-[4-(2,3-dihydrobenzo[1,4]dioxin-6-yl)-3,6-dihydro-2H-pyridin-1-yl]-2-oxoethyl}-1-(5-trifluoromethylpyridin-2-yl)piperazin-2-one] | 161 to 162
9 | O=C(CN1CCN(c2ccc(C(F)(F)F)cn2)CC1)N1CC=C(c2cccc3ccsc23)CC1 [Compound 50, 1-(4-benzo[b]thiophen-7-yl-3,6-dihydro-2H-pyridin-1-yl)-2-[4-(5-trifluoromethylpyridin-2-yl)piperazin-1-yl]ethanone] | 120 to 121
10 | COC(=O)c1ccc(N2C[C@@H](C)N(CC(=O)N3CC=C(c4ccc5sccc5c4)CC3)[C@@H](C)C2)nc1 [Compound 52, Methyl 6-{(3S,5R)-4-[2-(4-benzo[b]thiophen-5-yl-3,6-dihydro-2H-pyridin-1-yl)-2-oxoethyl]-3,5-dimethylpiperazin-1-yl}nicotinate] | 130 to 132

Next, values leading:

Row | melting point [°C] | Structure (SMILES)
11 | 195 to 196 | C[C@@H]1CN(c2cncnc2)C[C@H](C)N1CC(=O)N1CC=C(c2cccc3ccsc23)CC1 [Compound 55, 1-(4-benzo[b]thiophen-7-yl-3,6-dihydro-2H-pyridin-1-yl)-2-((2S,6R)-2,6-dimethyl-4-pyrimidin-5-ylpiperazin-1-yl)ethanone]
12 | 272 to 274 | C[C@@H]1CN(c2ccc(C(=O)O)cn2)C[C@H](C)N1CC(=O)N1CC=C(c2cccc3ccoc23)CC1 [Compound 57, 6-{(3S,5R)-4-[2-(4-benzofuran-7-yl-3,6-dihydro-2H-pyridin-1-yl)-2-oxoethyl]-3,5-dimethylpiperazin-1-yl}nicotinic acid]
13 | 154 to 155 | O=C(CN1CCN(c2ccc(C(F)(F)F)cn2)C(=O)C1)N1CC=C(c2ccc3occc3c2)CC1 [Compound 60, 4-[2-(4-benzofuran-5-yl-3,6-dihydro-2H-pyridin-1-yl)-2-oxoethyl]-1-(5-trifluoromethylpyridin-2-yl)piperazin-2-one]
14 | 148 to 150 | COC(=O)c1ccc(N2C[C@@H](C)N(CC(=O)N3CC=C(c4ccc5sc(C)cc5c4)CC3)[C@@H](C)C2)nc1 [Compound 61, Methyl 6-((3S,5R)-3,5-dimethyl-4-{2-[4-(2-methylbenzo[b]thiophen-5-yl)-3,6-dihydro-2H-pyridin-1-yl]-2-oxoethyl}piperazin-1-yl)nicotinate]
15 | 129 to 130 | C[C@@H]1CN(c2ccc(C(F)(F)F)cn2)C[C@H](C)N1CC(=O)N1CCC=C(c2cccc3ccoc23)C1 [Compound 63, 1-(5-benzofuran-7-yl-3,6-dihydro-2H-pyridin-1-yl)-2-[(2S,6R)-2,6-dimethyl-4-(5-trifluoromethylpyridin-2-yl)piperazin-1-yl]ethanone]
16 | 157 to 159 | CCCc1cc2cc(C3=CCN(C(=O)CN4[C@H](C)CN(c5ccc(C(F)(F)F)cn5)C[C@@H]4C)CC3)ccc2s1 [Compound 68, 2-[(2S,6R)-2,6-dimethyl-4-(5-trifluoromethylpyridin-2-yl)piperazin-1-yl]-1-[4-(2-propylbenzo[b]thiophen-5-yl)-3,6-dihydro-2H-pyridin-1-yl]ethanone]
17 | 184 to 186 | O=C(CN1CCN(c2ccc(C(F)(F)F)cn2)C(=O)C1)N1CC=C(c2cccc3ccoc23)C1 [Compound 83, 4-[2-(3-benzofuran-7-yl-2,5-dihydropyrrol-1-yl)-2-oxoethyl]-1-(5-trifluoromethylpyridin-2-yl)piperazin-2-one]
18 | 130 to 131 | C[C@@H]1CN(c2ncc(C(F)(F)F)cc2Cl)C[C@H](C)N1CC(=O)N1CC=C(c2cccc3ccoc23)CC1 [Compound 92, 1-(4-benzofuran-7-yl-3,6-dihydro-2H-pyridin-1-yl)-2-[(2S,6R)-4-(3-chloro-5-trifluoromethylpyridin-2-yl)-2,6-dimethylpiperazin-1-yl]ethanone]
19 | 198 to 200 | C[C@@H]1CN(c2ccc(C(F)(F)F)cn2)C[C@H](C)N1CC(=O)N1CC=C(c2c[nH]c3ccccc23)CC1 [Compound 97, 2-[(2S,6R)-2,6-dimethyl-4-(5-trifluoromethylpyridin-2-yl)piperazin-1-yl]-1-[4-(1H-indol-3-yl)-3,6-dihydro-2H-pyridin-1-yl]ethanone]
20 | 213 to 215 | O=C(CN1CCN(c2ccc3ccccc3n2)CC1)N1CC=C(c2c[nH]c3ccccc23)CC1 [Compound 98, 1-[4-(1H-indol-3-yl)-3,6-dihydro-2H-pyridin-1-yl]-2-(4-quinolin-2-ylpiperazin-1-yl)ethanone]
21 | 235 to 237 | C[C@@H]1CN(c2ncc(F)cn2)C[C@H](C)N1CC(=O)N1CC=C(c2c[nH]c3ccccc23)CC1 [Compound 100, 2-[(2S,6R)-4-(5-fluoropyrimidin-2-yl)-2,6-dimethylpiperazin-1-yl]-1-[4-(1H-indol-3-yl)-3,6-dihydro-2H-pyridin-1-yl]ethanone]
